Results reported in ChEMBL document CHEMBL2417502, “Polyketides from the littoral plant associated fungus Pseudallescheria boydii” (2013).

Tested on: A549
Test: Cytotoxicity against human A549 cells after 72 hrs by SRB assay
Assay type: functional
Conditions: A549, 72 h

| Structure (SMILES) | GI50 [µM] |
| --- | --- |
| CO[C@@H]1C(=O)CC[C@]2(CO2)[C@@]1(O)[C@@]1(C)O[C@@H]1CC=C(C)C [OVALICIN] | 4.1 |
| O=c1[nH]cc(F)c(=O)[nH]1 [FLUOROURACIL] | 3.6 |
| CC[C@H](C)C1=C(OC)[C@H](O)[C@](C)(CC)C1=O | 41.3 |
